Assay results reported in US5885786A, “Methods for screening of substances for inhibition of multidrug resistance” (priority 1996, dated 1999).
Entries after “also recorded” stand apart in the source; their conditions may differ. Read-outs that look alike come from different tables or passages of the source.

Legend:
[1] = test system: human melanoma cell lines (M101, M10 and M24); assay: Formation of glycosylceramide in human metastatic melanoma cell lines M101, M10 and M24; type: cell-based; settings: 5.0 μM tamoxifen, 24 h, FIG. 17
Source text: FIG. 17. […] Identical aliquots of total lipid extract were applied to TLC, and the plate was exposed for autoradiography.

[2] = test system: glycosphingolipid synthesis in MCF-7-AdrR cells; assay: Synthesis of glycosphingolipids in MCF-7-AdrR cells labeled with [3H]galactose; type: cell-based; settings: for inhibition at 5 µM: 5.0 μM tamoxifen, [3H]galactose 24 h, FIG. 10
Procedure: FIG. 10. […] Glc-cer, glycosylceramide; Lac-cer, lactosylceramide; Con, control; Tam, tamoxifen.
(§1) MCF-7 cells, grown in medium containing 10% FBS, were switched to media containing 5% FBS. Cell lipids were radiolabeled by adding [^3 H]serine (2.0 μCi/ml), [^3 H]palmitic acid (1.0 μCi/ml), or [^3 H]galactose (1.0 μCi/ml) to the culture medium for the indicated times. Other radiolabels can be substituted. Cells were then rinsed twice with PBS, pH 7.4, and 2 ml of ice-cold methanol containing 2% acetic acid was added. The cells were scraped free, transferred to glass test tubes (13×100 mm), and lipids were extracted by the addition of chloroform (2 ml) followed by water (2 ml). The resulting organic lower phase was withdrawn and evaporated under a stream of nitrogen. Lipids were resuspended in 100 μL of chloroform/methanol (1:1, v/v), and aliquots were applied to TLC plates.
When using [^3 H]galactose, radiolabeled cells were transferred to glass tubes with PBS (1 ml), glucocerebroside (2.5 μg) was added to aid recovery, and lipids were extracted consecutively three times with 2 ml of chloroform/methanol (1:1, v/v).

P-glycoprotein = settings: literature; cited from earlier work
MCF-7-AdrR cells = assay: Temporal pattern of tamoxifen influence on total lipid, glycosylceramide, sphingomyelin and ceramide metabolism; type: cell-based
Procedure: FIG. 13A, FIG. 13B and FIG. 13C. Temporal Pattern for the Influence of Tamoxifen on Total Lipid, Glycosylceramide, and Sphingomyelin Metabolism in MCF-7-AdrR Cells. Cells, preincubated in the absence or presence of tamoxifen (20 μM) for 30 min, were labeled by addition of 1.0 μCi/ml [^3 H]palmitic acid for the times shown using RPMI-1640 medium containing 5% FBS. At each time point, cultures were washed with PBS and lipids were extracted as described under Example I. Aliquots of the labeling medium were counted directly by liquid scintillation spectrometry to determine [^3 H]palmitic acid uptake and incorporation into total cell lipids (FIG. 13A). Glycosylceramide (FIG. 13B) and sphingomyelin (FIG. 13C) levels were evaluated by TLC using solvent system I and II, respectively, followed by quantitation of radiolabel in the relevant regions as detailed in Example I. Results are the mean±SEM of duplicate determinations from two separate experiments.
(§2) FIG. 14A and FIG. 14B. Effect of Tamoxifen on Ceramide Synthesis and Glycosylation in MCF-7-AdrR Cells. FIG. 14: A Influence of tamoxifen on ceramide synthesis. The experiment was conducted as described in the legend to FIG. 13. Aliquots of the total lipid extract were based-hydrolyzed as described in Example I, separated by TLC using solvent system IV, and the resolved [^3 H]ceramide was quantitated by liquid scintillation spectrometry. Results are the mean±SEM of duplicate determinations from two separate experiments. FIG. 14B: Effect of tamoxifen on glycosylation of C6 -ceramide. Cells, in 100×20 mm culture dishes, were preincubated without or with 5.0 μM tamoxifen for 30 min, followed by incubation without or with 5.0 μM C6 -ceramide:BSA (prepared at a 1:1 molar ratio) for an additional 30 min. Cells were labeled thereafter with 1.0 μCi/ml [^3 H]galactose for 24 h. [3H]Galactose uptake was determined and found to be similar in all experimental points (1.0×10^6 cpm/dish). The total extracted lipid was applied to TLC separation and [^3 H]glycosphingolipids were analyzed as described in the legend to FIG. 10. The autoradiography of a representative chromatogram is shown.
(§3) Lipid analysis was carried out by TLC using solvent system I: chloroform/methanol/ammonium hydroxide (40:10:1, v/v) for glycosylceramide separation, solvent system II: chloroform/methanol/water (60:40:8, v/v) for sphingoglycolipid separation, or solvent system III: chloroform/methanol/acetic acid/water (50:30:7:3, v/v) for sphingomyelin separation. For determination of ceramides, an aliquot of the chloroform-soluble lipids was base-hydrolyzed in 0.1N KOH in methanol for 1 h at 37° C., lipids were re-extracted, and separated by TLC using solvent system IV: hexane/diethyl ether/formic acid (60:40:1, v/v).
(§4) Radiochromatograms were sprayed with EN^3 HANCE, and exposed for 3-7 days for autofluorgraphy. TLC areas, aligned with bands on the autoradiographs or with iodine-stained commercial lipid standards, were scraped from the plate. Water (0.5 ml) was added to the plate scrapings followed by 4.5 ml of EcoLume counting fluid, and the samples were quantitated by liquid scintillation spectrometry.

acid sphingomyelinase = settings: literature; cited from earlier work
[3] = test system: glycosylation of ceramide in MCF-7-AdrR cells (UDP-glucose:ceramide glucosyltransferase); assay: Glycosylation of C6-ceramide and natural glycosphingolipid synthesis, [3H]galactose labeling; type: cell-based; settings: for inhibition at 5 µM: 5.0 μM tamoxifen, FIG. 14B
Procedure: as §2
In order to explore this notion, a short-chain ceramide analog with a 6-carbon N-acyl group (C6 -ceramide), was utilized as a substrate.

[4] = test system: glycosylceramide formation in MCF-7-AdrR cells; assay: Inhibition of [3H]glycosylceramide formation in MCF-7-AdrR cells (TLC, liquid scintillation); type: cell-based; settings: for inhibition of glycosylceramide synthesis (in words): MCF-7-AdrR cells
Procedure: FIG. 9. […] Values represent the mean of determinations from three separate experiments, and are calculated as the percent glycosylceramide in the total lipid tritium extract.
FIG. 11A and FIG. 11B. […] FIG. 11: A Autoradiography. […] For autoradiography equal aliquots by volume of total lipid extract were applied to TLC plates. […] [^3 H]Glycosylceramide, visualized in panel A, was quantitated as described in the legend to FIG. 9. Each value represents mean±SEM of determinations from three separate experiments.
FIG. 12. […] [^3 H]Glycosylceramide was quantitated as described in the legend to FIG. 9. Results represents the mean±SEM of determinations from three separate experiments.
as §1, §3, §4

[5] = test system: glycosylceramide synthesis in MCF-7-AdrR cells; assay: Glycosylceramide levels in MDR cells following drug treatment, [3H]serine 48 h; type: cell-based; settings: FIG. 15B

CC/C(=C(\c1ccccc1)c1ccc(OCCN(C)C)cc1)c1ccccc1 [tamoxifen]
inhibition of glucosylceramide formation (in words) [1]: inhibition of glucosylceramide formation | inhibition at 5 µM ([2]; read-out: reduction of ganglioside level): 33% | inhibition at 5 µM ([2]; read-out: reduction of glycosylceramide level): 69% | inhibition at 5 µM ([2]; read-out: reduction of lactosylceramide level): 74% | synthesis of higher gangliosides (in words) ([2]; tamoxifen, MCF-7-AdrR): suppress synthesis of higher gangliosides | binding to P-glycoprotein (in words) (P-glycoprotein): direct binding to P-glycoprotein | inhibition of glycosylceramide synthesis within 4 h (in words) (MCF-7-AdrR cells; tamoxifen 20 μM, 4 h time frame, FIG. 13B): almost completely inhibited | uptake and incorporation of [3H]palmitic acid (in words) (MCF-7-AdrR cells; tamoxifen 20 μM, FIG. 13A): very similar | onset of glycosylceramide formation inhibition (MCF-7-AdrR cells; tamoxifen 20 μM, FIG. 13B): 15 min | time of half-maximal influence on glycosylceramide formation (MCF-7-AdrR cells; tamoxifen 20 μM, FIG. 13B): 45 min | sphingomyelin synthesis (in words) (MCF-7-AdrR cells; tamoxifen 20 μM, FIG. 13C): not influenced; also recorded: not altered | level of ceramide / ceramide synthesis (in words) (MCF-7-AdrR cells; tamoxifen, FIG. 14A): remained unchanged; also recorded: very similar | inhibition of acid sphingomyelinase (in words) (acid sphingomyelinase): inhibition of acid sphingomyelinase activity | inhibition at 5 µM ([3]; 5.0 μM C6-ceramide, read-out: inhibition of conversion of C6-ceramide to C6-glycosylceramide): 54% | inhibition at 5 µM ([3]; in presence of C6-ceramide, read-out: inhibition of formation of natural glycosylceramide): 43% | inhibition of glycosylation of C6-ceramide (in words) ([3]; tamoxifen): drastically inhibited | inhibition at 5 µM ([4]; 5.0 μM drug, 24 h, MCF-7-AdrR, FIG. 11B, read-out: inhibition of glycosylceramide formation (cpm tritium)): 65% | IC50 ([4]; 24 h incubation with [3H]palmitic acid, FIG. 12, read-out: half-maximal inhibition (IC50) of cellular [3H]glycosylceramide formation): 1000 nM | maximal inhibitory effect on glycosylceramide formation (in words) ([4]; FIG. 12): highest maximal effect | inhibition of glycosylceramide synthesis (in words) [4]: strongly inhibited | inhibition of glycosylceramide synthesis (in words) ([4]; listed as Tamoxifen): drastically inhibit | inhibition of glycosylceramide synthesis (in words) ([5]; 5.0 μM, alone or with adriamycin 2.5 μM): greatly retarded | inhibition of glycosylceramide production, tamoxifen added to adriamycin ([5]; tamoxifen 5.0 μM + adriamycin 2.5 μM): 72%
